Data taken from patent US6706683B1, “Method for controlling the release of granules” (Asahi Kasei Pharma Corporation, priority 1998, dated 2004).

B1: calgranulin B: calcium-binding protein with a molecular weight of about 14 kD; SEQ ID NOS 2 and 4 (protein, listed as Homo sapiens)
chain: MTCKMSQLERNIETIINTFHQYSVKLGHPDTLNQGEFKELVRKDLQNFLKKENKNEKVIEHIMEDLDTNADKQLSFEEFIMLMARLTWASHEKMHEGDEGPGHHHKPGLGEGTP
B2: calgranulin A: calcium-binding protein with a molecular weight of about 8 kD; SEQ ID NOS 1 and 3 (protein, listed as Homo sapiens)
chain: MLTELEKALNSIIDVYHKYSLIKGNFHAVYRDDLKKLLETECPQYIRKKGADVWFKELDINTDGAVNFQEFLILVIKMGVAAHKKSHEESHKE

What was measured:
neutrophils = test: Screening of samples in calgranulin-stimulated elastase secretion from permeabilized neutrophils (Example 3); type: cell-based, human; details: sample 30 μM; for Amount of secretion (%): elastase, control without sample = 100%, calcium chloride 1 μM plus calgranulin (type and concentration not given); for effect on elastase (granule) secretion from neutrophils, in words: calgranulin A activated system
human neutrophils [1] = test: Lactoferrin secretion from permeabilized human neutrophils on addition of calgranulin and calcium chloride, ELISA (Example 2); type: cell-based; details: 3 μM calgranulin, 1 μM calcium chloride, digitonin-permeabilized neutrophils, 37° C. 5 minutes
Protocol: A neutrophil suspension was prepared from blood collected from human vein according to the method described in Biological Chemistry Experiment Lecture, second series, No. 8, Blood, Vol. 2, 679-685). The neutrophil suspension was adjusted to a concentration of 1×10^7 cells/ml using PB in a plastic test tube and incubated at 37° C. for 10 minutes. Digitonin (Sigma company) was added to the neutrophil suspension to a final concentration of 5 μg/ml and the mixture was incubated at 37° C. for 15 minutes.
The neutrophil suspension was centrifuged at 1200 rpm for 5 minutes. After supernatant was discarded, precipitated neutrophils were re-suspended in PB to prepare a permeabilized neutrophil suspension (cell concentration: 1×10^7 cells/ml). The permeabilized neutrophil suspension was added to a 96-well immunoplate, 200 μl per well, and incubated at 37° C. for 15 minutes. Next, an aqueous solution of calcium chloride (final concentration: 1 μM) and calgranulin A, calgranulin B, or a equimolar mixture of calgranulin A and calgranulin B (each to a final concentration of 0 μM, 0.3 μM, 1 μM, or 3 μM) were added, and the resulting mixtures were incubated at 37° C. for 5 minutes. The 96-well immunoplate was centrifuged at 1200 rpm for one minute at 4° C. ELISA-kit (OXIS Co.) was used for the determination of lactoferrin. […]

human neutrophils [2] = test: Elastase secretion from permeabilized human neutrophils on addition of calgranulin and calcium chloride (Example 1); type: cell-based; details: 3 μM calgranulin, 1 μM calcium chloride, digitonin-permeabilized neutrophils, 37° C. 5 minutes
Protocol: A neutrophil suspension was prepared from blood collected from human vein according to the method described in Biological Chemistry Experiment Lecture, second series, No. 8, Blood, Vol. 2, 679-685). The neutrophil suspension was adjusted to a concentration of 1×10^7 cells/ml in a plastic test tube using a permeabilized buffer (PB) (30 mM HEPES, 100 mM KCl, 20 mM NaCl, 1 mM EGTA, pH 7.0) and incubated at 37° C. for 10 minutes. Digitonin (Sigma company) was added to the neutrophil suspension to a final concentration of 5-7.5 μg/ml and the mixture was incubated at, 37° C. for 15 minutes. The neutrophil suspension was centrifuged at 1200 rpm for 5 minutes. After discarding supernatant, precipitated neutrophils were re-suspended in PB to prepare a permeabilized neutrophil suspension (cell concentration: 1×10^7/ml).
The permeabilized neutrophil suspension was added to a 96-well immunoplate, 200 μl per well, and incubated for at 37° C. 15 minutes. […]
The 96-well immunoplate was centrifuged at 1200 rpm for one minute at 4° C. using a centrifugation container for immunoplates. […] Then, absorbance at 405 nm was measured using a microplate reader.

| Molecule | Amount of secretion (%) (neutrophils) | effect on elastase (granule) secretion from neutrophils, in words (neutrophils) | amount of lactoferrin secretion, assuming secretion in the absence of calgranulin is 1 (human neutrophils [1]) | amount of elastase secretion, assuming secretion in the absence of calgranulin is 1 (human neutrophils [2]) |
| --- | --- | --- | --- | --- |
| COc1ccc(N(CCCCCCCN2CCNCC2)Cc2ccccc2)cc1.Cl.Cl.Cl [Compound 2, N-benzyl-N-(4-methoxyphenyl)-7-piperazinylheptylamine trihydrochloride] | 51% | remarkably controlled granule secretion |  |  |
| CCCCCCC(CC)=C(c1ccc(O)cc1)c1ccc(O)cc1 [Compound 3, 1,1-(di-4-hydroxyphenyl)-2-ethyl-1-octaene] | 151% | remarkably increased the amount of secretion |  |  |
| COc1ccc(CN(CCCCCCCN2CCNCC2)c2ccc(OC)cc2)cc1.Cl.Cl.Cl [Compound 1, N-(4-methoxybenzyl)-N-(4-methoxyphenyl)-7-piperazinylheptyl amine trihydrochloride] | 61% | remarkably controlled granule secretion |  |  |
| B1 |  |  | about five | about seven |
| B2 |  |  | about six | about eight |
